# Laboratory results taken from ChEMBL document CHEMBL1149740, “New phenolic glucosides from the leaves of Eurya tigang” (J Nat Prod, 1992).
# Experiments:
# T-24 = test: Antitumor activity against human T24 cells; format: functional, cell-based
# [1] = Antitumor activity against mouse keratinocytes; format: cell-based; settings: Keratinocyte
IC50 (T-24) [µg/mL],IC50 [1] [µg/mL],SMILES
28.7,9.2,O=C(/C=C/c1ccc(O)cc1)OC[C@H]1O[C@@H](OCCc2ccc(O)cc2)[C@H](O)[C@@H](O)[C@@H]1O [EUTIGOSIDE A]
31.9,9.4,O=C1C=CC(O)(CCO[C@@H]2O[C@H](COC(=O)/C=C/c3ccc(O)cc3)[C@@H](O)[C@H](O)[C@H]2O)C=C1 [EUTIGOSIDE B]
29.3,12.6,O=C1C=CC(O)(CCO[C@@H]2O[C@H](COC(=O)/C=C/c3ccccc3)[C@@H](O)[C@H](O)[C@H]2O)C=C1 [EUTIGOSIDE C]
